Laboratory results reported in US5552267A, “Solution for prolonged organ preservation” (priority 1994, dated 1996).

Legend:
[1] = system: cardiac graft vasculature; experiment: perfusion of donor grafts by microspheres, nitric oxide series; assay type: in vivo, rat; details: 12 h preservation in LR
Experimental: Ten minutes after restoration of blood flow, 0.5 ml of 10 μm diameter microspheres (10^6 /ml) (E-Z Trac, Los Angeles, Calif.) was injected into the donor aortic root. Deposition of microspheres in ventricular tissue was assessed following alkaline hydrolysis, washing, and counting of microspheres as described^8, with results expressed as number of spheres per (40×) field per gram of ventricle. A minimum of ten fields were counted and the mean ±SEM is reported.

[2] = system: heart; experiment: heterotopic rat cardiac transplant, nitric oxide series, graft survival/score; assay type: in vivo, rat (male Sprague-Dawley); details: for graft survival: NTG 0.1 mg/ml where added
Source text: Male Sprague-Dawley rats (350 grams, Camm Research, Wayne, N.J.) were used, and harvest, preservation, and transplantation procedures performed as described^8. Preservation solutions included lactated Ringer's (LR) solution (Baxter, Edison, N.J.), or LR supplemented with nitroglycerin (DuPont, Wilmington, Del.), sodium nitroprusside (Roche Laboratories, Nutley, N.J.), N^G -monomethyl-L-arginine (L-NMMA; Chembiochem, Salt Lake City, Utah), L-arginine (Sigma Chemical Co., St. Louis, Mo.), or 8-bromoguanosine3',5'monophosphate (8-Br-cGMP; Sigma). Components were combined within 4 hrs of donor cardiectomy, and preservation solutions were kept at 4° C. All of these solutions were at the pH of LR (6.6). University of Wisconsin solution (UW) was purchased from Dupont. […] Ten minutes after removal of the cross-clamp, an electrocardiogram was taken (Grass Polygraph, Quincy, Mass.) and the heart was judged by the same blinded investigators throughout based on the presence/absence of regular contractions and a transplant score (0-5, worst-best, respectively) employing the following criteria: contraction (poor=0, average=1, vigorous=2), tissue turgor (hard=0, average=1, soft=2), and color (dusky=0, pink=1).
Graft survival data was analyzed by contingency analysis (chi-square). Transplant scores, microsphere perfusion, myeloperoxidase, NO synthase, and platelet serotonin release data were analyzed using ANOVA for unpaired variables with the Tukey test used to discriminate significant differences between group means. Values are expressed as means ±SEM, with a p<0.05 considered statistically significant.

[3] = system: cGMP-regulated phosphodiesterases; details: cited from earlier work
[4] = system: nitric oxide synthase; experiment: cardiac nitric oxide synthase activity (L-arginine to L-citrulline conversion); assay type: biochemical, rat; details: LR with vs without supplement, 12 h
Experimental: Hearts were either freshly explanted, preserved, or preserved/transplanted (with 10 min. of reperfusion), after which they were excised. The coronary arteries were flushed with physiologic saline, the atria and great vessels excised, and the ventricular cavities rinsed free of residual intracavitary blood. Samples were flash-frozen in liquid nitrogen and stored at -80° C. until the time of assay. Extracts were prepared by homogenizing tissue at 4° C. in the presence of protease inhibitors (aprotinin, epsilon amino caproic acid, PMSF, pepstatin A, and chymostatin), and centrifuging (20,000 rpm×20 min) to remove cellular debris. The extract (20 μg of protein by the method of Lowry^15) was incubated for 60 min. in the presence of CaCl2 (10 μM), FAD (8 μM), dithiothreitol (60 μM)(Sigma), tetrahydrobiopterin (8 μM; B. Schirks, Switzerland), and ^3 H-L-arginine (0.072 μM, 5 μCi;, Amersham, Arlington Heights, Ill.). Thin layer chromatography (TLC) was performed with 5 μl of the reaction mix, using methanol:chloroform:water:ammonium hydroxide (9:2:8:3) as the running solvent. Silica gel TLC plates (Sigma) were stained with ninhydrin (1 g/500 ml ethanol) and the spots corresponding to L-arginine, L-ornithine, and L-citrulline cut out and counted. […] Results are expressed as the mean ±SEM of 3 determinations.

[5] = system: cGMP; experiment: tissue cGMP levels (radioimmunoassay, unpublished); details: NTG in preservation solution
[6] = system: neutrophil infiltration of cardiac graft; experiment: graft myeloperoxidase activity/histology, nitric oxide series; assay type: in vivo, rat; details: 12 h; NTG 0.1 mg/ml in LR
Experimental: Ten minutes following restoration of blood flow, transplanted hearts were excised and the aortic root was flushed for 5 minutes (rate of 2 ml/minute controlled by roller pump) with normal saline (Baxter, Edison, N.J.), the atria and great vessels were removed, and intracavitary blood was evacuated. Remaining ventricular pieces were weighed, homogenized, and myeloperoxidase activity measured as described^10. For histologic study, cardiac graft samples were fixed in an ascending series of aldehydes, embedded, sectioned, and stained with hematoxylin and eosin.

Compound	graft blood flow [1]	concentration of maximal benefit ([2]; 8-Br-cGMP dose-response, 12 h in LR)	effect on graft preservation (words) ([2]; 12 h in LR)	effect on graft preservation (words) ([2]; 12 h in LR, listed as 8-bromo-cGMP)	interaction with allosteric binding sites [3]	nitric oxide synthase activity after transplantation [4]	tissue cGMP levels [5]	graft survival ([2]; 24-28 h in UW)	graft survival ([2]; 12 h in LR)	concentration of maximal effect ([2]; NTG dose-response, 12 h in LR)	neutrophil infiltration [6]
Nc1nc2c(nc(Br)n2[C@@H]2O[C@@H]3COP(=O)(O)O[C@H]3[C@H]2O)c(=O)[nH]1 [8-Br-cGMP, 8-bromoguanosine-3'5' cyclic monophosphate]	enhanced blood flow	0.5 mM	enhanced cardiac preservation in a dose-dependent manner	enhanced graft survival	does not interact with the allosteric binding sites	similar	–	–	–	–	–
O=[N+]([O-])OCC(CO[N+](=O)[O-])O[N+](=O)[O-] [NTG, nitroglycerin]	enhanced blood flow	–	–	–	–	similar	augments tissue cGMP levels	100%	92%	0.1 mg/mL	marked decrease in neutrophil infiltration
